For the data set the following is noted: instrument: TW, calibrated with polyalanine and drug standards.

SMILES strings stand for the structures. Counter-ions that a name gives are not always drawn.

In the case of `Cc1nccc2c1[nH]c1ccccc12` [HARMANE], the “collision cross section (N2)” value ([M+H]+) is 136.6 Å². As to `CC1(C)CC[C@]2(C(=O)O)CC[C@]3(C)C(=CC[C@@H]4[C@@]5(C)CC[C@H](O)[C@@](C)(CO)[C@@H]5CC[C@]43C)[C@@H]2C1` [HEDERAGENIN], the “collision cross section (N2)” value ([M+H-H2O]+) came out at 210.6 Å². `O=Cc1ccccc1O[C@@H]1O[C@H](CO)[C@@H](O)[C@H](O)[C@H]1O` [HELICIN]: under “[M+Na]+”, the “collision cross section (N2)” value was 161.4 Å². Consider `CCCCC(CC)CN1CN(CC(CC)CCCC)CC(C)(N)C1` (configuration not stated) [HEXETIDINE], for which the “collision cross section (N2)” value ([M+H]+) came out at 194 Å². With `COc1ccc2c(c1)O[C@H]1c3ccc(OC)cc3OC[C@@H]21` [HOMOPTEROCARPIN], the “collision cross section (N2)” value ([M+H]+) was 162.7 Å². As to `CCN(CC)CCNc1ccc(CO)c2sc3ccccc3c(=O)c12` [HYCANTHONE], the “collision cross section (N2)” value ([M+H]+) amounted to 180.4 Å². On to `NS(=O)(=O)c1cc2c(cc1Cl)NCNS2(=O)=O` [HYDROCHLOROTHIAZIDE], for which the “collision cross section (N2)” value ([M+H-H2O]+) amounted to 160.8 Å².

In the case of `CC[C@H]1CN2CC[C@H]1C[C@@H]2[C@@H](O)c1ccnc2ccc(OC)cc12` [HYDROQUINIDINE], under “[M+H]+”, the “collision cross section (N2)” value amounted to 176.7 Å². Same read-out and setting: for `CC(=O)[C@@]1(O)CC[C@H]2[C@@H]3CCC4=CC(=O)CC[C@]4(C)[C@H]3CC[C@@]21C` [HYDROXYPROGESTERONE] the value was 179.9 Å²; for `COc1ccc2c(C)cc(=O)oc2c1` [HYMECROMONE METHYL ETHER], 134.4 Å². In the case of `COC1=C(OC)C(=O)C(CCCCCCCCCCO)=C(C)C1=O` [IDEBENONE], where the note is “[M+H]+”, the “collision cross section (N2)” value was found to be 178.6 Å².

`O=C([O-])Cc1cnc[nH]1` [IMIDAZOL-4-YLACETIC ACID SODIUM SALT]: the “collision cross section (N2)” value ([M+H]+) was 120.7 Å². For the compound `CCC(Cc1c(I)cc(I)c(N)c1I)C(=O)O` (configuration not stated) [IOPANIC ACID], the “collision cross section (N2)” value ([M+H]+) was 172.7 Å².

In the case of `CC(C)Oc1ccc2c(=O)c(-c3ccccc3)coc2c1` [IPRIFLAVONE], for the setting “[M+H]+”, the “collision cross section (N2)” value came to 164.3 Å². Turning to `CCCCC1=NC2(CCCC2)C(=O)N1Cc1ccc(-c2ccccc2-c2nn[nH]n2)cc1` [IRBESARTAN], the “collision cross section (N2)” value ([M+H]+) is 201.2 Å². With `COc1cc(-c2coc3cc(O[C@@H]4O[C@H](CO)[C@@H](O)[C@H](O)[C@H]4O)c(OC)c(O)c3c2=O)cc(O)c1OC` [IRIDIN], the “collision cross section (N2)” value ([M+H]+) is 227.2 Å². `COc1cc(-c2coc3cc(OC)c(OC)c(OC)c3c2=O)cc(OC)c1OC` [IRIGENIN TRIMETHYL ETHER]: the “collision cross section (N2)” value ([M+H]+) came to 195.4 Å².

Take `COc1cc(-c2coc3cc(O)c(OC)c(O)c3c2=O)cc(O)c1OC` [IRIGENIN]: the “collision cross section (N2)” value ([M+H]+) came to 181.6 Å².

Take `COc1cc2occc2c2oc(=O)ccc12` [ISOBERGAPTENE]: under “[M+H]+”, the “collision cross section (N2)” value was 139.8 Å². In the case of `COc1cc2c(cc1OC)[C@@H]1C(=O)c3ccc4oc(C(C)C)cc4c3O[C@@H]1CO2` [ISOROTENONE], where the note is “[M+H]+”, the “collision cross section (N2)” value stood at 195.2 Å². The same measure, in the same setting: for `O=[N+]([O-])O[C@H]1CO[C@H]2[C@@H]1OC[C@H]2O[N+](=O)[O-]` [ISOSORBIDE DINITRATE] the value was 151.6 Å²; for `Cc1cc(NC(=O)C2=C(O)c3ccccc3S(=O)(=O)N2C)no1` [ISOXICAM], 170.8 Å². Consider `CC[C@H](C)[C@H]1O[C@]2(CC[C@@H]1C)C[C@@H]1C[C@@H](C/C=C(\C)[C@@H](O[C@H]3C[C@H](OC)[C@@H](O[C@H]4C[C@H](OC)[C@@H](O)[C@H](C)O4)[C@H](C)O3)[C@@H](C)/C=C/C=C3\CO[C@@H]4[C@H](O)C(C)=C[C@@H](C(=O)O1)[C@]34O)O2` [IVERMECTIN], for which the “collision cross section (N2)” value ([M+Na]+) is reported as 292.7 Å².

Regarding `CC(=O)N1CCN(c2ccc(OC[C@H]3CO[C@](Cn4ccnc4)(c4ccc(Cl)cc4Cl)O3)cc2)CC1` [KETOCONAZOLE], the “collision cross section (N2)” value ([M+H]+) came out at 214.5 Å². On to `OC[C@H]1O[C@@H](n2cnc3c(NCc4ccco4)ncnc32)[C@H](O)[C@@H]1O` [KINETIN RIBOSIDE], for which, under “[M+H]+”, the “collision cross section (N2)” value was 179 Å². Regarding `c1coc(CNc2ncnc3nc[nH]c23)c1` [KINETIN], the “collision cross section (N2)” value ([M+H]+) is 144.1 Å². The same measure, in the same setting: for `Nc1nnc(-c2cccc(Cl)c2Cl)c(N)n1` [LAMOTRIGINE] the value was 150.6 Å². For `Cc1c(OCC(F)(F)F)ccnc1CS(=O)c1nc2ccccc2[nH]1` (configuration not stated) [LANSOPRAZOLE], the “collision cross section (N2)” value ([M+H]+) came out at 185.8 Å².

As for `CC(C)CCC[C@@H](C)[C@H]1CC[C@H]2C3=CC[C@H]4C[C@@H](O)CC[C@]4(C)[C@H]3CC[C@]12C` [LATHOSTEROL], the “collision cross section (N2)” value ([M+H-H2O]+) is on record as 204 Å². For the compound `NCCCC[C@H](N[C@@H](CCc1ccccc1)C(=O)O)C(=O)N1CCC[C@H]1C(=O)O` [LISINOPRIL], for the setting “[M+H]+”, the “collision cross section (N2)” value amounted to 189.7 Å². The same measure, in the same setting: for `CCCCc1nc(Cl)c(CO)n1Cc1ccc(-c2ccccc2-c2nn[nH]n2)cc1` [LOSARTAN] the value was 199.2 Å². In the case of `C[C@H]1[C@H](C)CC[C@]2(C(=O)O)CC[C@]3(C)C(=CC[C@@H]4[C@@]5(C)C[C@@H](O)[C@H](O)[C@@](C)(CO)[C@@H]5[C@H](O)C[C@]43C)[C@H]12` [MADECASSIC ACID], the “collision cross section (N2)” value ([M+Na]+) worked out at 234.8 Å². On the same count and under the same terms, for `CCOC(=O)CC(SP(=S)(OC)OC)C(=O)OCC` (configuration not stated) [MALATHION] the value was 171.5 Å². Take `Cc1cccc(Nc2ccccc2C(=O)O)c1C` [MEFENAMIC ACID]: the “collision cross section (N2)” value ([M+H]+) came out at 153.3 Å². On to `N[C@@H](Cc1ccc(N(CCCl)CCCl)cc1)C(=O)O` [MELPHALAN], for which the “collision cross section (N2)” value ([M+H]+) turned out to be 168.7 Å².

As to `S=c1nc[nH]c2nc[nH]c12` [MERCAPTOPURINE], under “[M+H]+”, the “collision cross section (N2)” value is on record as 125.5 Å². Same read-out and setting: for `CC(=O)Nc1cccc(O)c1` [METACETAMOL] the value was 130.6 Å². On the same count and under the same terms, for `COc1cc2c(cc1OC)C(=O)OC2` [METAMECONINE] the value was 137.6 Å²; for `CC(C)NCC(O)c1cc(O)cc(O)c1` (configuration not stated) [METAPROTERENOL], 149.9 Å². `COc1c2c(cc3occ(-c4ccc5c(c4)OCO5)c(=O)c13)OC(C)(C)C=C2` [METHYL ROBUSTONE]: the “collision cross section (N2)” value ([M+H]+) came to 186.9 Å². Same read-out and setting: for `C[C@H]1C[C@@H]2[C@H]([C@@H](O)C[C@@]3(C)[C@H]2CC[C@]3(O)C(=O)CO)[C@@]2(C)C=CC(=O)C=C12` [METHYLPREDNISOLONE] the value was 187.7 Å². Still for that read-out and setting: for `COCCc1ccc(OCC(O)CNC(C)C)cc1` (configuration not stated) [METOPROLOL] the value was 170.7 Å². The same measure, in the same setting: for `OCCN1C[C@H](O)[C@@H](O)[C@H](O)[C@H]1CO` [MIGLITOL] the value was 141 Å²; for `N=c1nc(N2CCCCC2)cc(N)n1O` [MINOXIDIL], 146.1 Å²; for `CO[C@@]12[C@H](COC(N)=O)C3=C(C(=O)C(C)=C(N)C3=O)N1C[C@@H]1N[C@@H]12` [MITOMYCIN C], 169.5 Å².

Take `CC[C@@]1([C@@H]2O[C@@H]([C@H]3O[C@@](O)(CO)[C@H](C)C[C@@H]3C)C[C@@H]2C)CC[C@H]([C@]2(C)CC[C@]3(C[C@H](O)[C@@H](C)[C@@H]([C@@H](C)[C@@H](OC)[C@H](C)C(=O)O)O3)O2)O1` [MONENSIN]: the “collision cross section (N2)” value ([M+Na]+) worked out at 245.1 Å².

As for `C[C@H]1C(=O)O[C@@H]2CCN3CC=C(COC(=O)[C@](C)(O)[C@]1(C)O)[C@H]23` [MONOCROTALINE], the “collision cross section (N2)” value ([M+H]+) is listed as 172.9 Å².

Turning to `O=c1c(O)c(-c2ccc(O)cc2O)oc2cc(O)cc(O)c12` [MORIN], the “collision cross section (N2)” value ([M+H]+) was 162.7 Å². On the same count and under the same terms, for `COc1ccc2c(c1)O[C@@H]1COc3cc(OC)c(OC)cc3[C@@H]1C2=O` [MUNDOSERONE] the value was 175.1 Å²; for `COc1c(-c2coc3cc4c(cc3c2=O)CC(OC(C)=O)C(C)(C)O4)ccc2c1C=CC(C)(C)O2` (configuration not stated) [MUNDULONE ACETATE], 222.7 Å²; for `COc1c(-c2coc3cc4c(cc3c2=O)CC(O)C(C)(C)O4)ccc2c1C=CC(C)(C)O2` (configuration not stated) [MUNDULONE], 210.9 Å².

With `C/C(=C\C(=O)OCCCCCCCCC(=O)O)C[C@@H]1OC[C@H](C[C@@H]2O[C@H]2[C@@H](C)[C@H](C)O)[C@@H](O)[C@H]1O` [MUPIROCIN], for the setting “[M+H]+”, the “collision cross section (N2)” value was 214.8 Å². Regarding `O=C(O)c1ccccc1Nc1ccccc1` [N-PHENYLANTHRANILIC ACID], the “collision cross section (N2)” value ([M+H]+) worked out at 144.5 Å². For the compound `COc1ccc2cc(CCC(C)=O)ccc2c1` [NABUMETONE], the “collision cross section (N2)” value ([M+H]+) came to 148 Å². In the case of `NC(=O)c1ccc[n+]([C@@H]2O[C@H](COP(=O)([O-])OP(=O)(O)OC[C@H]3O[C@@H](n4cnc5c(N)ncnc54)[C@H](O)[C@@H]3O)[C@@H](O)[C@H]2O)c1` [NADIDE], where the note is “[M+H]+”, the “collision cross section (N2)” value came out at 227 Å². The same measure, in the same setting: for `COc1ccc2cc([C@H](C)CO)ccc2c1` [NAPROXOL] the value was 140 Å²; for `O=C1CC(c2ccc(O)cc2)Oc2cc(O)cc(O)c21` (configuration not stated) [NARINGENIN], 160.6 Å².

Consider `C[C@@H]1O[C@@H](O[C@H]2[C@H](Oc3cc(O)c4c(c3)O[C@H](c3ccc(O)cc3)CC4=O)O[C@H](CO)[C@@H](O)[C@@H]2O)[C@H](O)[C@H](O)[C@H]1O` [NARINGIN], for which, under “[M+Na]+”, the “collision cross section (N2)” value was found to be 233.5 Å². On to `CC(C)C1CCC(C(=O)N[C@H](Cc2ccccc2)C(=O)O)CC1` (some centres not stated) [NATEGLINIDE], for which the “collision cross section (N2)” value ([M+H]+) is 178.6 Å². Same read-out and setting: for `O=C(O)c1cccnc1` [NIACIN] the value was 120.3 Å²; for `O=C(CCNNC(=O)c1ccncc1)NCc1ccccc1` [NIALAMIDE], 174.3 Å². On to `CO[C@]12C[C@@H](COC(=O)c3cncc(Br)c3)CN(C)[C@@H]1Cc1cn(C)c3cccc2c13` [NICERGOLINE], for which the “collision cross section (N2)” value ([M+H]+) stood at 213.8 Å².

The record behind these values is the C3SDB collision cross section collection.
